According to patent EP4702978A1, “AGENT FOR TREATING OR PREVENTING AMYOTROPHIC LATERAL SCLEROSIS” (Socium Inc., priority 2023, dated 2024):
“Also recorded” adds a separate entry of the source. Read-outs that look alike come from different tables or passages of the source.

What was measured:
TDP-43 = assay: Soluble and insoluble fractions of TDP-43 in TDP-43-transfected Neuro2a cells, Western blot (Example 2); type: cell-based, Mouse; settings: 10 µmol/L added 6 hours after transfection, cultured for 12 hours; for soluble fractions versus insoluble fractions of TDP-43 in the cells: Figure 5; for proportion of insoluble fractions based on a total number of soluble fractions and insoluble fractions of TDP-43: Figure 6
Protocol: (§1) Mouse neuroblastoma (Neuro2a) cells were seeded on a dish. The Neuro2a cells were cultured in a culture medium containing DMEM+10% FBS at 37°C in the presence of 5% CO2. On the first day after seeding, differentiation into neurons was initiated. Differentiation into neurons was performed in a culture medium containing DMEM+2% FBS+20 µmol/L retinoic acid. On the fourth day after seeding, cells were transfected with synthesized TDP-43 mRNA by a lipofection method. Cells were sampled at 6 hours, 9 hours, 12 hours, 15 hours, 18 hours, and 21 hours after transfection. […] For sampling, cells were lysed in an RIPA buffer and centrifuged at 22,000 Xg for 30 minutes at 4°C, the supernatant was used as the soluble fraction, the precipitate was used as the insoluble fraction, and equal volumes of a 2×SDS sample buffer were added to the respective fractions and heated at 95°C for 5 minutes to prepare electrophoresis samples. The electrophoresis samples were subjected to electrophoresis using a polyacrylamide gel, TDP-43 was then transferred to a PVDF membrane. TDP-43 was detected through chemiluminescence using anti-TDP-43 antibodies as primary antibodies and HRP-conjugated anti-rabbit antibodies as secondary antibodies. […] The insoluble fractions of TDP-43 indicate the aggregation of TDP-43.
Neuro2a cells were seeded on a dish. On the first day after seeding, differentiation into neurons was initiated. On the fourth day after seeding, cells were transfected with the TDP-43 gene.

[1] = tested on: TDP-43 in motor neurons derived from iPS cells of healthy subjects; assay: Soluble and insoluble fractions of TDP-43 in motor neurons derived from iPS cells of healthy subjects, Western blot (Example 3); type: cell-based, human; settings: 10 µmol/L, cultured for 20 days, Figure 7
[2] = cited from earlier work
[3] = tested on: Neuro2a cells transfected with the TDP-43 gene; assay: Inhibition of cell death in neuronally differentiated Neuro2a cells transfected with the TDP-43 gene (Example 1); type: cell-based, Mouse; settings: evaluated 7 days after transfection; for EC50: Mus musculus, N2a, compound added 5 hours after transfection, 10-10,000 nmol/L, relative viability, read-out: EC50 (inhibition of cell death in nerve cells forcibly expressing TDP-43); for inhibition of cell death: cells transfected with the TDP-43 gene, Figures 3C and 4
Protocol: as §1
Neuro2a cells were seeded on a dish. On the first day after seeding, differentiation into neurons was initiated. On the fourth day after seeding, cells were transfected with the TDP-43 gene. […] In addition, as a control, 10 nmol/L, 50 nmol/L, 100 nmol/L, 500 nmol/L, 1,000 nmol/L, 5,000 nmol/L, or 10,000 nmol/L of ropinirole was added to a culture medium.
The proportion of dead cells was evaluated 7 days after the cells were transfected with the TDP-43 gene.

[4] = tested on: TDP-43 in motor neurons derived from iPS cells of ALS patients; assay: Soluble and insoluble fractions of TDP-43 in motor neurons derived from iPS cells of ALS patients, Western blot (Example 3); type: cell-based, human; settings: 10 µmol/L, cultured for 20 days; for bands for soluble and insoluble fractions of TDP-43: Figure 7; for average proportion of insoluble fractions of TDP-43: three experiments, DMSO control about 46.1%, Figure 8
[5] = Reported pharmacokinetics of D-cycloserine after oral administration to humans; type: in vivo; settings: estimated; 15 mg orally administered twice daily
[6] = cited from earlier work; remark: listed apart in the source

SMILES	soluble fractions versus insoluble fractions of TDP-43 in the cells (TDP-43)	proportion of insoluble fractions based on a total number of soluble fractions and insoluble fractions of TDP-43 (TDP-43)	bands for soluble and insoluble fractions of TDP-43 [1]	Cmax ([2]; 15 mg orally administered to humans, read-out: maximum blood concentration (Cmax))	half-life ([2]; reported)	EC50 [3]	inhibition of cell death [3]	bands for soluble and insoluble fractions of TDP-43 [4]	average proportion of insoluble fractions of TDP-43 [4]	trough value [5]	side effects ([6]; 150 mg administered to humans)	side effects ([6]; 250 mg administered to humans in order to treat tuberculosis)	side effects ([6]; administered to humans, dose not stated)
N[C@@H]1CONC1=O [D-cycloserine, (4R)-4-Amino-1,2-oxazolidin-3-one]	the number of soluble fractions of TDP-43 was larger than the number of insoluble fractions of TDP-43	less than half	bands for soluble fractions of TDP-43 were clearly observed, and bands for insoluble fractions were unclear	~5.6 µM	about 10 hours	128 nM	cell death was inhibited; also recorded: exhibited an effect of inhibiting cell death in a concentration-dependent manner	bands for soluble fractions of TDP-43 were clearly observed, and bands for insoluble fractions were unclear	about 17.4%	> 128 nmol/L	causes headaches	serious side effects such as epileptiform seizure and mental confusion	
N[C@H]1CONC1=O [L-cycloserine, (4S)-4-amino-1,2-oxazolidin-3-one]	the number of soluble fractions of TDP-43 was larger than the number of insoluble fractions of TDP-43	less than half				237 nM	exhibited an effect of inhibiting cell death in a concentration-dependent manner						
CCCN(CCC)CCc1cccc2c1CC(=O)N2 [ropinirole]			bands for soluble fractions of TDP-43 were clearly observed, and bands for insoluble fractions were unclear			198 nM		bands for soluble fractions of TDP-43 were clearly observed, and bands for insoluble fractions were unclear	about 19.3%				
CC(=O)NCCCS(=O)(=O)O [acamprosate, 3-(acetylamino)propylsulfonic acid]													anaphylaxis associated with symptoms such as generalized skin rash, rash, urticaria, stomatitis, laryngospasm, and shortness of breath; also recorded: angioedema associated with symptoms such as tongue swelling and lymphadenopathy
